According to patent US20150057261A1, “AZETIDINE DERIVATIVES AS SPHINGOSINE-1 PHOSPHATE RECEPTORS MODULATORS” (Allergan, Inc., priority 2013, published 2015):

Molecular target: T1, human S1P1 receptor (Homo sapiens, UniProt P21453)
T1 construct: expressed in transfected cells; membranes used
Assay: GTP γ35S binding assay for S1P1 activity
Format: biochemical
Conditions: membranes of cells stably expressing the S1P1 receptor
Experimental: Compounds were synthesized and tested for S1P1 activity using the GTP γ^35S binding assay. These compounds may be assessed for their ability to activate or block activation of the human S1P1 receptor in cells stably expressing the S1P1 receptor.
GTP γ^35S binding was measured in the medium containing (mM) HEPES 25, pH 7.4, MgCl2 10, NaCl 100, dithiothreitol 0.5, digitonin 0.003%, 0.2 nM GTP γ^35S, and 5 μg membrane protein in a volume of 150 μl. Test compounds were included in the concentration range from 0.08 to 5,000 nM unless indicated otherwise. Membranes were incubated with 100 μM 5′-adenylylimidodiphosphate for 30 min, and subsequently with 10 μM GDP for 10 min on ice. Drug solutions and membrane were mixed, and then reactions were initiated by adding GTP γ^35S and continued for 30 min at 25° C. Reaction mixtures were filtered over Whatman GF/B filters under vacuum, and washed three times with 3 mL of ice-cold buffer (HEPES 25, pH7.4, MgCl2 10 and NaCl 100). Filters were dried and mixed with scintillant, and counted for ^35S activity using a β-counter. Agonist-induced GTP γ^35S binding was obtained by subtracting that in the absence of agonist. Binding data were analyzed using a non-linear regression method. In case of antagonist assay, the reaction mixture contained 10 nM […] in the presence of test antagonist at concentrations ranging from 0.08 to 5000 nM.

T1 sequence (P21453 whole entry): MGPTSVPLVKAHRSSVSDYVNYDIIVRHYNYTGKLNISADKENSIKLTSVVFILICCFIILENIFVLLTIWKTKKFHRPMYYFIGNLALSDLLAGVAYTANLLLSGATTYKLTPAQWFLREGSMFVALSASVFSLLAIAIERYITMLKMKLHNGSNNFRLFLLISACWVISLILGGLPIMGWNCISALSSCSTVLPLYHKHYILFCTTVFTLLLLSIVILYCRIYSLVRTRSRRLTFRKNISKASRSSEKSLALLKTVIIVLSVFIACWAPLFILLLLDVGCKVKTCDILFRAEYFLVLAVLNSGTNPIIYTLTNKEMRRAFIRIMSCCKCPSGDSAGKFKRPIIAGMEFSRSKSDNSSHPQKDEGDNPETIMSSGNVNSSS

EC50 [nM] | SMILES
17.1 | Cc1ccc(CC(CCCc2ccc(CN3CC(C(=O)O)C3)cc2)c2cccc(Cl)c2)cc1C (stereo not drawn) [Compound 2, 1-{4-[4-(3-Chlorophenyl)-5-(3,4-dimethylphenyl)pentyl]benzyl}azetidine-3-carboxylic acid]
7.33 | Cc1ccc(CC(CCCCc2ccc(CN3CC(C(=O)O)C3)cc2)c2cc(F)cc(F)c2)cc1C (stereo not drawn) [Compound 3, 1-{4-[5-(3,5-Difluorophenyl)-6-(3,4-dimethylphenyl)hexyl]benzyl}azetidine-3-carboxylic acid]
64.5 | Cc1ccc(CC(CCCCc2ccc(CN3CC(C(=O)O)C3)cc2)c2cccc(Cl)c2)cc1C (stereo not drawn) [Compound 1, 1-{4-[5-(3-Chlorophenyl)-6-(3,4-dimethylphenyl)hexyl]benzyl}azetidine-3-carboxylic acid]
